{
  "source": "patent US20170143674A1",
  "about": "“Use of Glutaryl Histamine for the Treatment of Respiratory Tract Diseases” (LTD \"VALENTA-INTELLEKT\", priority 2011, published 2017)",
  "key": {"LPS-induced tonsillitis": {"system": "LPS-induced tonsillitis", "assay": "LPS-induced tonsillitis model (E. coli LPS into cervical lymph node)", "assay_type": "in vivo", "details": "for Area of germinal centers of lymphoid follicles in affected lymph nodes / TP (blood total protein) / Weight difference between affected and intact lymph nodes: M ± m", "protocol": "This example is aimed at evaluating the activity of glutaryl histamine on experimental model of tonsillitis. LPS-induced tonsillitis is one of the most adequate models for the study of the pathogenesis, pathomorphological changes and action of pharmacological medicaments on the course of this disease.\nTonsillitis was induced under anesthesia by administration of a solution of E. coli lipopolysaccharide (LPS) (Sigma) in normal physiological solution in a dose of 20 μg/kg, by 10 μl to the right upper lymph node (Inn. Cervicales superficiales). After administration, the lymph nodes were put under superficial neck muscles and then the skin was stitched. The wound was treated with streptocide. The animal was placed into a post-operation cage.\nThe tested medicament was administered once daily in a given dose strictly at the stated time for three days before the induction of tonsillitis and 10 days after. Normal saline solution was used as placebo.\nImmediately after euthanasia, the animals were subjected to necropsy, the affected and intact lymph nodes were removed and weighed.\nThe lymph nodes derived from the half of animals from each group were being frozen after removal in a refrigerating chamber at −25° C. for 72 hours. Then the lymph nodes were lyophilized.\nIn a half of animals from each group (7), the affected lymph nodes were subjected to histological analysis. After euthanasia, intact and affected lymph nodes were removed from each animal. […] Sections with a thickness of 4 to 6 μm were prepared from the paraffin blocks, stained with hematoxylin and eosin to reveal typical pathological processes and study required parameters using light-optical microscope Leica DM LS (magnification 200× and 400×).\nWeights of intact and affected lymph nodes were compared and the nodes also were lyophilized to evaluate an effect of the medicaments on the swelling degree and adequacy of the model of tonsillitis.\nThe protein-synthetic function of the liver and a systemic effect of the medicaments on organism were evaluated in total protein (TP) analysis."}, "[1]": {"system": "acute bronchitis induced by endotracheal administration of lipopolysaccharide", "assay": "acute bronchitis (bronchiolitis/pneumonia) model, endotracheal LPS", "assay_type": "in vivo, Wistar rats", "source_text": "The therapeutic effectiveness of glutaryl histamine was studied on an experimental model of acute bronchitis. The therapeutic effectiveness of glutaryl histamine was studied on an experimental model of acute bronchitis induced by endotracheal administration of lipopolysaccharide to laboratory Wistar rats through a probe. […] After administration of LPS, from 5 to 7 motions by the syringe plunger was made for better distribution of LPS in the pulmonary tract. After this manipulation, the animals were monitored for 2 hours to reveal complications after the administration.\nDexamethasone in a dose of 5 mg/kg was used a reference medicament.\nHistology and morphometry. Respiratory and air pathways were studied on samples taken from the middle third (hilum of the lung) and apexes of the left lung. […] Material for the analysis of the lung histological structure in all animals was taken from the hilum and apex of the lung to study respiratory and air pathways.\nThe time history of changes in lungs after administration of LPS are shown in FIGS. 1, 2 and 3, wherein the changes are expressed by semi-quantitative scores (intensity of interstitial edema expressed by scores) or by a percentage ratio of the injured part of the lung."}, "[2]": {"system": "acute respiratory distress syndrome (ARDS)", "assay": "ARDS model, single intravenous LPS 7.5 mg/kg", "assay_type": "in vivo, rat", "details": "for Me (%) (mortality rate): 8 days; for Died: total number 10", "protocol": "Since an intravenous administration of lipopolysaccharide (LPS) to animals is one of the most acceptable models for studying the pathogenesis, pathomorphological changes and consequences of acute respiratory distress syndrome, this model was used in this example. Tested medicament glutaryl histamine was administered for 9 days after the first administration of LPS, i.e. glutaryl histamine was administered for 12 days in total (3 days before the induction of ARDS and 9 days during and after the induction). The exception was dexamethasone since, according to the literature data and the information leaflet, long-time administration of steroidal anti-inflammatory agents can cause severe side effects. For this reason, dexamethasone was administered according to the following schedule: 49, 24 and 1 hour before the induction of ARDS in a dose of 5 mg/kg, for 3 days after the first injection of LPS in the same dose; the medicament was withdrawn by a gradual dose reduction for 3 days. Thus, dexamethasone was administered 9 times.\nThe mortality rate among the animals administered LPS in an intravenous dose of 7.5 mg/kg was 70% for 8 days. The most of them (60%) died on the first day, in particular, from 4 to 12-16 hours after the injection of LPS. The mortality rate among the animals administered glutaryl histamine was different from the rate in animals treated with dexamethasone; however, most of them also died on the first day, about in the same time period (Table 11)."}},
  "note": "Marks after values point to notes of the source that are not given here.",
  "data": [
    {"smiles": "O=C(O)CCCC(=O)NCCc1c[nH]cn1", "note": "[glutaryl histamine]", "values": [
      {"measurement": "Mortality rate (%)", "setting": "LPS-induced tonsillitis; Glutaryl histamine 9 mg/kg", "result": 0, "unit": "%"},
      {"measurement": "The number of died animals/initial number of animals in a group", "setting": "LPS-induced tonsillitis; Glutaryl histamine 9 mg/kg", "result": "0/14"},
      {"measurement": "Area of germinal centers of lymphoid follicles in affected lymph nodes", "setting": "LPS-induced tonsillitis; Glutaryl histamine 9 mg/kg", "result": "0.067 ± 0.006* mm^2"},
      {"measurement": "TP (blood total protein)", "setting": "LPS-induced tonsillitis; Glutaryl histamine 9 mg/kg", "result": "67.2 ± 1.1", "unit": "g/L"},
      {"measurement": "Weight difference between affected and intact lymph nodes", "setting": "LPS-induced tonsillitis; Glutaryl histamine 9 mg/kg", "result": "13.0 ± 1.3", "unit": "mg"},
      {"measurement": "Mortality rate (%)", "setting": "LPS-induced tonsillitis; Glutaryl histamine 27 mg/kg", "result": 0, "unit": "%"},
      {"measurement": "The number of died animals/initial number of animals in a group", "setting": "LPS-induced tonsillitis; Glutaryl histamine 27 mg/kg", "result": "0/14"},
      {"measurement": "Area of germinal centers of lymphoid follicles in affected lymph nodes", "setting": "LPS-induced tonsillitis; Glutaryl histamine 27 mg/kg", "result": "0.048 ± 0.003** mm^2"},
      {"measurement": "TP (blood total protein)", "setting": "LPS-induced tonsillitis; Glutaryl histamine 27 mg/kg", "result": "65.0 ± 0.6* ** g/l"},
      {"measurement": "Weight difference between affected and intact lymph nodes", "setting": "LPS-induced tonsillitis; Glutaryl histamine 27 mg/kg", "result": "8.8 ± 1.1* ** mg"},
      {"measurement": "Area of germinal centers of lymphoid follicles in affected lymph nodes", "setting": "LPS-induced tonsillitis; Glutaryl histamine 45 mg/kg", "result": "0.066 ± 0.007* mm^2"},
      {"measurement": "TP (blood total protein)", "setting": "LPS-induced tonsillitis; Glutaryl histamine 45 mg/kg", "result": "65.1 ± 0.8* ** g/l"},
      {"measurement": "Peribronchial infiltration and interstitial edema (lung sections)", "setting": "[1]; 27 mg/kg, 24 hours after administration of LPS", "result": "Reduction"},
      {"measurement": "Peri- and intrabronchial infiltration and interstitial edema (lung sections)", "setting": "[1]; 27 mg/kg, 72 hours after administration of LPS", "result": "Reduction"},
      {"measurement": "interstitial edema", "setting": "[1]; 27 mg/kg, first and third days, compared with the control group", "result": "reduction"},
      {"measurement": "alveolar infiltration", "setting": "[1]; 27 mg/kg, starting from the second day up to the third day", "result": "significant reduction"},
      {"measurement": "Hemorrhagic symptoms in lungs", "setting": "[1]; all time points, each tested dose", "result": "significantly weaker compared to the control group and the group of dexamethasone"},
      {"measurement": "IP (%) (protective index)", "setting": "[2]; Glutaryl histamine 0.5 mg/kg", "result": 57.1, "unit": "%"},
      {"measurement": "S (%) (survival rate)", "setting": "[2]; Glutaryl histamine 0.5 mg/kg", "result": 70, "unit": "%"},
      {"measurement": "Me (%) (mortality rate)", "setting": "[2]; Glutaryl histamine 0.5 mg/kg", "result": 30, "unit": "%"},
      {"measurement": "Died", "setting": "[2]; Glutaryl histamine 0.5 mg/kg", "result": 3},
      {"measurement": "IP (%) (protective index)", "setting": "[2]; Glutaryl histamine 3 mg/kg", "result": 28.6, "unit": "%"},
      {"measurement": "S (%) (survival rate)", "setting": "[2]; Glutaryl histamine 3 mg/kg", "result": 50, "unit": "%"},
      {"measurement": "Me (%) (mortality rate)", "setting": "[2]; Glutaryl histamine 3 mg/kg", "result": 50, "unit": "%"},
      {"measurement": "Died", "setting": "[2]; Glutaryl histamine 3 mg/kg", "result": 5},
      {"measurement": "IP (%) (protective index)", "setting": "[2]; Glutaryl histamine 9 mg/kg", "result": 42.9, "unit": "%"},
      {"measurement": "S (%) (survival rate)", "setting": "[2]; Glutaryl histamine 9 mg/kg", "result": 60, "unit": "%"},
      {"measurement": "Me (%) (mortality rate)", "setting": "[2]; Glutaryl histamine 9 mg/kg", "result": 40, "unit": "%"},
      {"measurement": "Died", "setting": "[2]; Glutaryl histamine 9 mg/kg", "result": 4},
      {"measurement": "IP (%) (protective index)", "setting": "[2]; Glutaryl histamine 18 mg/kg", "result": 28.6, "unit": "%"},
      {"measurement": "S (%) (survival rate)", "setting": "[2]; Glutaryl histamine 18 mg/kg", "result": 50, "unit": "%"},
      {"measurement": "Me (%) (mortality rate)", "setting": "[2]; Glutaryl histamine 18 mg/kg", "result": 50, "unit": "%"},
      {"measurement": "Died", "setting": "[2]; Glutaryl histamine 18 mg/kg", "result": 5},
      {"measurement": "IP (%) (protective index)", "setting": "[2]; Glutaryl histamine 27 mg/kg", "result": 71.4, "unit": "%"},
      {"measurement": "S (%) (survival rate)", "setting": "[2]; Glutaryl histamine 27 mg/kg", "result": 80, "unit": "%"},
      {"measurement": "Me (%) (mortality rate)", "setting": "[2]; Glutaryl histamine 27 mg/kg", "result": 20, "unit": "%"},
      {"measurement": "Died", "setting": "[2]; Glutaryl histamine 27 mg/kg", "result": 2},
      {"measurement": "IP (%) (protective index)", "setting": "[2]; Glutaryl histamine 45 mg/kg", "result": 28.6, "unit": "%"},
      {"measurement": "S (%) (survival rate)", "setting": "[2]; Glutaryl histamine 45 mg/kg", "result": 50, "unit": "%"},
      {"measurement": "Me (%) (mortality rate)", "setting": "[2]; Glutaryl histamine 45 mg/kg", "result": 50, "unit": "%"},
      {"measurement": "Died", "setting": "[2]; Glutaryl histamine 45 mg/kg", "result": 5}
    ]}
  ]
}
